This passage reports IC50 results from ChEMBL document CHEMBL4325935, “Molecular Basis for the Selective Inhibition of Histone Deacetylase 6 by a Mercaptoacetamide Inhibitor” (ACS Med Chem Lett, 2018).

Broadly, the IC50 is the concentration at which inhibition is half-maximal. A high value points to weaker potency in that assay.

Each structure is given as a SMILES string.

Assay [1] has as its target T1, Protein deacetylase HDAC6 (Homo sapiens, UniProt Q9UBN7).
T1 sequence (Q9UBN7 whole entry): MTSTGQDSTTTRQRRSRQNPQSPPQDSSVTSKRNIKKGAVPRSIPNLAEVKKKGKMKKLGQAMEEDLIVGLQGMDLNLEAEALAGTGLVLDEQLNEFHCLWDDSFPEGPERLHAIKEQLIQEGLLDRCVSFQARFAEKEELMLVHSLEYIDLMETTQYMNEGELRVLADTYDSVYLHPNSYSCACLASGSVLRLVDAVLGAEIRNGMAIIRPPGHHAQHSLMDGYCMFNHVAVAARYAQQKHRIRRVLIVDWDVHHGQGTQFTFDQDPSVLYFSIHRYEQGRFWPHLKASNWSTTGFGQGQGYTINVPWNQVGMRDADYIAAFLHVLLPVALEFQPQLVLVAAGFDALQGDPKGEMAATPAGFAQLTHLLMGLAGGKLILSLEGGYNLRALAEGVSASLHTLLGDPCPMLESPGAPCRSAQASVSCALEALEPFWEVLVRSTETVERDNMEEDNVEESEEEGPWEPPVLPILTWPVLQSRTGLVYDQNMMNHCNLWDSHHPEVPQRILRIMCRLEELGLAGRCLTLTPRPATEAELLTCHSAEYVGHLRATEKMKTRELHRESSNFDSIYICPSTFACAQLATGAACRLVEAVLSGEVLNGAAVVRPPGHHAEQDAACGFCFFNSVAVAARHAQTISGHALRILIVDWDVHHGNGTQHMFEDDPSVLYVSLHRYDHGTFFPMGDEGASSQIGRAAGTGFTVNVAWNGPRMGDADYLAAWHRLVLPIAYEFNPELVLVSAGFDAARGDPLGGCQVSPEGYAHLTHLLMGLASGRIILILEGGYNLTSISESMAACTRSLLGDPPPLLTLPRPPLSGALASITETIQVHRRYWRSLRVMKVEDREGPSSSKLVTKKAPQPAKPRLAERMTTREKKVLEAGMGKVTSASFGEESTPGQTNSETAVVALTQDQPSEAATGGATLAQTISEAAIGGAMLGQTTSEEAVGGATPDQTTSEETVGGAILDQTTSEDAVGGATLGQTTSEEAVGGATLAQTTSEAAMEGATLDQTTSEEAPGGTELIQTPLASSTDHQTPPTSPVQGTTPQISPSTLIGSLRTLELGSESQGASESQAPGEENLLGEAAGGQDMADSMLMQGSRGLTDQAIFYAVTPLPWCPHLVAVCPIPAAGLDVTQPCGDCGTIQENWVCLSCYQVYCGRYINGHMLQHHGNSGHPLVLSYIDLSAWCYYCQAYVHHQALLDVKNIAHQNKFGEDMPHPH
In words: Inhibition of full length human N-terminal FLAG-tagged HDAC6 (1 to 1215 residues) expressed in HEK293 cells preincubated for 15 mins followed by acetyl-Gly-Ala-[acetyl-Lys]-AMC substrate addition measured after 30 mins by fluorimetric method. In kind it is cell-based.

Assay [2] has as its target T2, Histone deacetylase 8 (Homo sapiens, UniProt Q9BY41).
T2 sequence (Q9BY41 whole entry): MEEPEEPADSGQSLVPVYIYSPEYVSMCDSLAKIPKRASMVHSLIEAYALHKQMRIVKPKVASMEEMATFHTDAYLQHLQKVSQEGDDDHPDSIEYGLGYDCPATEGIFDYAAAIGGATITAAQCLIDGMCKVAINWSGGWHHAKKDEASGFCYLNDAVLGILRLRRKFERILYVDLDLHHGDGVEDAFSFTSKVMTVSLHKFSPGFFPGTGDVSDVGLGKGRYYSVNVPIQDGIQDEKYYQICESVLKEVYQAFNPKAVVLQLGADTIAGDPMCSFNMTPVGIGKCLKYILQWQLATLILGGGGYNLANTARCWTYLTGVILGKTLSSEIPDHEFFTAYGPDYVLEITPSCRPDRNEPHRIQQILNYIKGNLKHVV
In words: Inhibition of full length human N-terminal FLAG-tagged HDAC8 (1 to 377 residues) expressed in HEK293 cells preincubated for 15 mins followed by Boc-[trifluoroacetyl-Lys]-AMC substrate addition measured after 30 mins by fluorimetric method. In kind it is cell-based.

`O=C(CS)NCCCCCn1ccc2cc(Cl)c(Cl)cc21`: the IC50 in assay [1] was 0.05 µM; in assay [2], 12 µM.
